In patent US20130272978A1, “DIHYDROXYACETONE MONOETHERS” (MERCK PATENT GMBH, priority 2010, published 2013):

Legend:
[1] = Solubility in cosmetic oils (Finsolv TN); assay type: physicochemical
[2] = Tanning experiment (liquid skin model); conditions: for L* (Lab values after 24 hours) / a* (Lab values after 24 hours) / b* (Lab values after 24 hours): 1 mmol substance + 1 mmol DL-lysine in ethylene glycol/water, pH=7, after 24 h, UV-VIS spectrometer; for Kinetics of tanning reaction compared with DHA: documented via photos; for Coloration/shade compared with DHA: from Lab values after 24 h; for Speed of tanning reaction relative to DHA: optical assessment
Experimental: Tanning Experiment (Liquid Skin Model)
1 mmol of the self-tanner substance to be tested are dissolved in 94 ml of ethylene glycol and 6 ml of water (potassium hydrogenphthalate-buffered to pH=7) with 146 mg of DL-lysine (1 mmol) and stirred for 24 hrs. (=liquid skin model). The kinetics are documented via photos. After 24 h, the colour values (L*a*b* system) of the solution are measured by UV-VIS spectrometer (Varian Cary-50) in order to be able to assess the effect on the skin tones.

| Compound | Solubility in cosmetic oil [1] [%] | L* (Lab values after 24 hours) [2] | a* (Lab values after 24 hours) [2] | b* (Lab values after 24 hours) [2] | Kinetics of tanning reaction compared with DHA [2] | Coloration/shade compared with DHA [2] | Speed of tanning reaction relative to DHA [2] |
| --- | --- | --- | --- | --- | --- | --- | --- |
| O=C(CO)COCc1ccccc1 [MBDE, 1-benzyloxy-3-hydroxypropan-2-one] | 0.24 | 42.6 | 32.0 | 70.0 | faster tanning reaction than DHA | strong shift towards a redder shade | doubling of the speed |
| O=C(CO)COCC1CCCCC1 [MCHMDE, monocyclohexylmethyl-DHA ether] | 0.97 | 45.3 | 18.2 | 50.5 |  | strong shift towards a more yellow shade |  |
| CCCCC(CC)COCC(=O)CO (centres unmarked) [MEHDE, mono-2-ethylhexyl-DHA ether] | 2.25 | 86.5 | 4.7 | 24.3 |  | paler coloration |  |
| CCCCCCCOCC(=O)CO [MHDE, 1-heptyloxy-3-hydroxypropan-2-one] |  | 0.1 | 0.4 | 0.2 | faster tanning reaction than DHA | darker coloration | doubling of the speed |
